Results on 3 molecules are retold here after patent publication US12479847B2 (DANA-FARBER CANCER INSTITUTE, INC., priority 2019, dated 2025).

Assay in all cases: KINOMEscan (ScanMAX) kinase profiling
Holding throughout (type): binding

Experiment [1] has as its target T1, panel of 468 kinases (Homo sapiens, UniProt Q8IW41).
T1 construct: purchased KINOMEscan (ScanMAX) service
T1 sequence (Q8IW41 1-473): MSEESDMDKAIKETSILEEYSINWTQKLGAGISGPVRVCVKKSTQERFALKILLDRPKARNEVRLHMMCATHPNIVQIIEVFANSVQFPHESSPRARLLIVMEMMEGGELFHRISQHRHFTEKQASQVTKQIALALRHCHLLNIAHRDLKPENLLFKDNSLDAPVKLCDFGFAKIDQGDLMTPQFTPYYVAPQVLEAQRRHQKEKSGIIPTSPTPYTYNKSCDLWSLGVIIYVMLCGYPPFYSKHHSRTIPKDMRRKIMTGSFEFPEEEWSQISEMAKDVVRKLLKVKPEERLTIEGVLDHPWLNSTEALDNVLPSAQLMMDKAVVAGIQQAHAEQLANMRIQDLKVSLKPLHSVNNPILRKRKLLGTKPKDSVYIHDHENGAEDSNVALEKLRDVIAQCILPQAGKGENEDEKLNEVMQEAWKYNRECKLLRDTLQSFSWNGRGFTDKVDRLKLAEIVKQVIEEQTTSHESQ
The following applies: MAPKAPK5; 1 μM; read-out: % control.

Experiment [2] deals with T2, panel of 468 kinases (Homo sapiens, UniProt Q8WXR4).
T2 construct: purchased KINOMEscan (ScanMAX) service
T2 sequence (Q8WXR4 1-1341): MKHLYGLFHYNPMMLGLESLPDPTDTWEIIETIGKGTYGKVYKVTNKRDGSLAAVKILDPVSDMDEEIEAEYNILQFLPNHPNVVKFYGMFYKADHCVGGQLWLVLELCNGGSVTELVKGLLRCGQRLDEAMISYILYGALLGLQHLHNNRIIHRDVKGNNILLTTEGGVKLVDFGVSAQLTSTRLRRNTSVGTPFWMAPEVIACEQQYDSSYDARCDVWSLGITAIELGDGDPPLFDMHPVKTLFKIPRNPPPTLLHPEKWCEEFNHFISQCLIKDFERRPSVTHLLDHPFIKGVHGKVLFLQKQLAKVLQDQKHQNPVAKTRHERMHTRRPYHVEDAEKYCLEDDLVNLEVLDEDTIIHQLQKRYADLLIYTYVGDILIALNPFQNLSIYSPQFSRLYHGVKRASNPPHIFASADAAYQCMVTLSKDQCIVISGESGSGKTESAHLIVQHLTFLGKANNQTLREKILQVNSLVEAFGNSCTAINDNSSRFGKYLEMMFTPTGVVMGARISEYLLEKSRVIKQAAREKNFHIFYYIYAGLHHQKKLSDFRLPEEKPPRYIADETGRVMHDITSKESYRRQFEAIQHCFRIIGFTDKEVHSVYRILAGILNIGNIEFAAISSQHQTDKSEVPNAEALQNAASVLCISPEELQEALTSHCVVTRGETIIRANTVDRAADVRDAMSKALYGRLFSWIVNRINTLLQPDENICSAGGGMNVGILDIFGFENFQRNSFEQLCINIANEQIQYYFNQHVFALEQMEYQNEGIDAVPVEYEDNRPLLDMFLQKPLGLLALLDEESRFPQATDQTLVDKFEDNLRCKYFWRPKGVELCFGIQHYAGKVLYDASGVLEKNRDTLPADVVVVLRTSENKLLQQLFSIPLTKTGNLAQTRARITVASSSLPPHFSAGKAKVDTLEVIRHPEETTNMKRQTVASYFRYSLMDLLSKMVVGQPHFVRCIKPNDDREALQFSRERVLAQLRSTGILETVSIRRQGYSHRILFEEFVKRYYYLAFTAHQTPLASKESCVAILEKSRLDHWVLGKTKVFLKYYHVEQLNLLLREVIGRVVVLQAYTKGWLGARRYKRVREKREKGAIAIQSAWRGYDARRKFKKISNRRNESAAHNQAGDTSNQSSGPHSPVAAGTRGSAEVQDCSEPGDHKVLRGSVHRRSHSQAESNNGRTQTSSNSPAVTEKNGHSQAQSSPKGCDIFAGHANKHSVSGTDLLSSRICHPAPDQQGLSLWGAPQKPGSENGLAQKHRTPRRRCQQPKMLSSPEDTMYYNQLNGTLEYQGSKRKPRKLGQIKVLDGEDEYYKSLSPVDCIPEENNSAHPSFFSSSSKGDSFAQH
As to conditions: MYO3B; 1 μM; read-out: % control.

Experiment [3] deals with T3, panel of 468 kinases (Homo sapiens, UniProt Q9HAZ1).
T3 construct: purchased KINOMEscan (ScanMAX) service
The following applies: CLK4; 1 μM; read-out: % control.

For experiment [4], the target named is T4, panel of 468 kinases (Homo sapiens, UniProt P53671).
T4 construct: purchased KINOMEscan (ScanMAX) service
The following applies: LIMK2; 1 μM; read-out: % control.

T4 sequence (P53671 whole entry): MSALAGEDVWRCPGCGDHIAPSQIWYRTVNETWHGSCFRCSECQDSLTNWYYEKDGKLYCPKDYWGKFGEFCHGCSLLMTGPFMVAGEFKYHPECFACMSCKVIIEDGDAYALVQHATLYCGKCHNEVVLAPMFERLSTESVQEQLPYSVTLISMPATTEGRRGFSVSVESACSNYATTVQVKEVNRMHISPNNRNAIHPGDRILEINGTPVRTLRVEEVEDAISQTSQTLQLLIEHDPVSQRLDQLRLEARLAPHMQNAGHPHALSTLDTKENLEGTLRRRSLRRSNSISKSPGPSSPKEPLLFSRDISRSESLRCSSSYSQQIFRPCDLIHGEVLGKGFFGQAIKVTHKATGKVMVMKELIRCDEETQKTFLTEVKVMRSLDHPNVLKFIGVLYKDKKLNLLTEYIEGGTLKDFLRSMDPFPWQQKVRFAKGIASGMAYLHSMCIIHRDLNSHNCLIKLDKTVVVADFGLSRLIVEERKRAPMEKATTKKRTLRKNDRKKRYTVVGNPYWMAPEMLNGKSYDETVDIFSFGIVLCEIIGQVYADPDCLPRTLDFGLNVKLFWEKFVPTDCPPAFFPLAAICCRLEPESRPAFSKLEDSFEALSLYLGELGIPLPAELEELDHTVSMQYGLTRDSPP
T3 sequence (Q9HAZ1 whole entry): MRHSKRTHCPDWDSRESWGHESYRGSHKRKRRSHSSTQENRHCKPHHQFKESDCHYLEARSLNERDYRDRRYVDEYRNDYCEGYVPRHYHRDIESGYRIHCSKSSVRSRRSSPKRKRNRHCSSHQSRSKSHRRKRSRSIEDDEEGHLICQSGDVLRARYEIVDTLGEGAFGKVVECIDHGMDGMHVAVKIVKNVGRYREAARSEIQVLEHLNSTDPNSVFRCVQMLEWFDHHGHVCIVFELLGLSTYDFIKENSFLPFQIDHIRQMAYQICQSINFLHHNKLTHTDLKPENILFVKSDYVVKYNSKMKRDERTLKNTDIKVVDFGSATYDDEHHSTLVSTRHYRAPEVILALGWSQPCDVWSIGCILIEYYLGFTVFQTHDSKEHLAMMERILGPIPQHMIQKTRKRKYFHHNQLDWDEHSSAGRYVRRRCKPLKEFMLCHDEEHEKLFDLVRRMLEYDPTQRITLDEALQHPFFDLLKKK

Take `CNc1nc(Nc2ccc(C(=O)N3CCC(N4CCOCC4)CC3)c3c2OCO3)nc2[nH]cc(Cl)c12` [Compound 75, (7-((5-chloro-4-(methylamino)-7H-pyrrolo[2,3-d]pyrimidin-2-yl)amino)benzo[d][1,3]dioxol-4-yl)(4-morpholinopiperidin-1-yl)methanone]: the remaining binding at 1 µM on panel of 468 kinases [1] amounted to 43%; on panel of 468 kinases [2], 100%; at panel of 468 kinases [3] it was 0.7%; on panel of 468 kinases [4], 99%.
The matching figures for `CNc1nc(Nc2ccc(P3(=O)CCN(C4CCOCC4)CC3)cc2OC)nc2[nH]cc(Cl)c12` [Compound 77, 4-(4-((5-chloro-4-(methylamino)-7H-pyrrolo[2,3-d]pyrimidin-2-yl)amino)-3-methoxyphenyl)-1-(tetrahydro-2H-pyran-4-yl)-1,4-azaphosphinane 4-oxide]: 46%, 100%, 1.2% and 84%.
The matching figures for `CNc1nc(Nc2ccc(S(=O)(=O)N3CCC(N4CCOCC4)CC3)cc2OC)nc2[nH]cc(Cl)c12` [Compound 12, 5-chloro-N2-(2-methoxy-4-((4-morpholinopiperidin-1-yl)sulfonyl)phenyl)-N4-methyl-7H-pyrrolo[2,3-d]pyrimidine-2,4-diamine]: 67%, 95%, 0.75% and 100%.
